# Values of other authors as cited in PMC10815991, “Membrane-Bound Redox Enzyme Cytochrome bd-I Promotes Carbon Monoxide-Resistant Escherichia coli Growth and Respiration” (International Journal of Molecular Sciences, 2024).
# Where two headings read alike, the source gives them in different places.
# Experiments:
# [1] = tested on: cytochrome bo3; settings: read-out: apparent Km(O2); cited from earlier work
# [2] = tested on: cytochrome bd-II; settings: read-out: apparent Km(O2); cited from earlier work
# [3] = tested on: cytochrome bd-I heme d2+; settings: cited from earlier work
Compound,Km [1] [µM],Km [2] [nM],"koff, NO dissociation from heme d^2+ ([3]; ref 69) [s⁻¹]","koff, NO dissociation from heme d^2+ ([3]; ref 70) [s⁻¹]"
O=O [O2],6,2000,–,–
nitric oxide [NO],–,–,0.133,0.163
